# Patent US20210387978A1, “CYCLOBUTYL DIHYDROQUINOLINE SULFONAMIDE COMPOUNDS” (AMGEN INC., priority 2020, published 2021)
# System: CYP3A4
# Test: Human CYP 3A4 Induction Assay (mRNA, cryopreserved human hepatocytes)
# Assay type: in vitro ADME
# Conditions: 10 uM test compound, 72 hours, percent of control (POC), rifampin positive control
# Source text: Human CYP 3A4 Induction Assay
row,Compound,Hu CYP3A4 mRNA Induction (10 uM POC)
1,"COc1cc([C@H]2C[C@H](C(F)(F)F)C2)c(F)cc1-n1c(=O)ccc2cc(S(=O)(=O)Nc3ncccn3)ccc21 (atropisomer, axis not shown; (P)) [Example 15, trans-(P)-1-(5-fluoro-2-methoxy-4-(3-(trifluoromethyl)cyclobutyl)phenyl)-2-oxo-N-(pyrimidin-2-yl)-1,2-dihydroquinoline-6-sulfonamide]",36%
2,"COc1cc(C2CCC2)c(Cl)cc1-n1c(=O)ccc2cc(S(=O)(=O)Nc3ncco3)ccc21 (atropisomer, axis not shown; (P)) [Example 32, (P)-1-(5-chloro-4-cyclobutyl-2-methoxyphenyl)-N-(oxazol-2-yl)-2-oxo-1,2-dihydroquinoline-6-sulfonamide]",88%
3,"COc1cc([C@H]2C[C@H](C(F)(F)F)C2)c(C)cc1-n1c(=O)ccc2cc(S(=O)(=O)Nc3ncccn3)ccc21 (atropisomer, axis not shown; (P)) [Example 37, trans-(P)-1-(2-methoxy-5-methyl-4-(3-(trifluoromethyl)cyclobutyl)phenyl)-2-oxo-N-(pyrimidin-2-yl)-1,2-dihydroquinoline-6-sulfonamide]",49.51%
4,"COc1cc([C@H]2C[C@H](C(F)(F)F)C2)c(F)cc1-n1c(=O)ccc2c(F)c(S(=O)(=O)Nc3ccon3)ccc21 (atropisomer, axis not shown; (P)) [Example 46, trans-(P)-5-fluoro-1-(5-fluoro-2-methoxy-4-(3-(trifluoromethyl)cyclobutyl)phenyl)-N-(isoxazol-3-yl)-2-oxo-1,2-dihydroquinoline-6-sulfonamide]",6.6%

# Biological target: T1, Human Nav1.7 (Homo sapiens, UniProt Q15858)
# T1 construct: expressed in transfected cells; host or cells: Spiking HEK cells (without Kir2.1 transfection)
# T1 sequence (Q15858 whole entry): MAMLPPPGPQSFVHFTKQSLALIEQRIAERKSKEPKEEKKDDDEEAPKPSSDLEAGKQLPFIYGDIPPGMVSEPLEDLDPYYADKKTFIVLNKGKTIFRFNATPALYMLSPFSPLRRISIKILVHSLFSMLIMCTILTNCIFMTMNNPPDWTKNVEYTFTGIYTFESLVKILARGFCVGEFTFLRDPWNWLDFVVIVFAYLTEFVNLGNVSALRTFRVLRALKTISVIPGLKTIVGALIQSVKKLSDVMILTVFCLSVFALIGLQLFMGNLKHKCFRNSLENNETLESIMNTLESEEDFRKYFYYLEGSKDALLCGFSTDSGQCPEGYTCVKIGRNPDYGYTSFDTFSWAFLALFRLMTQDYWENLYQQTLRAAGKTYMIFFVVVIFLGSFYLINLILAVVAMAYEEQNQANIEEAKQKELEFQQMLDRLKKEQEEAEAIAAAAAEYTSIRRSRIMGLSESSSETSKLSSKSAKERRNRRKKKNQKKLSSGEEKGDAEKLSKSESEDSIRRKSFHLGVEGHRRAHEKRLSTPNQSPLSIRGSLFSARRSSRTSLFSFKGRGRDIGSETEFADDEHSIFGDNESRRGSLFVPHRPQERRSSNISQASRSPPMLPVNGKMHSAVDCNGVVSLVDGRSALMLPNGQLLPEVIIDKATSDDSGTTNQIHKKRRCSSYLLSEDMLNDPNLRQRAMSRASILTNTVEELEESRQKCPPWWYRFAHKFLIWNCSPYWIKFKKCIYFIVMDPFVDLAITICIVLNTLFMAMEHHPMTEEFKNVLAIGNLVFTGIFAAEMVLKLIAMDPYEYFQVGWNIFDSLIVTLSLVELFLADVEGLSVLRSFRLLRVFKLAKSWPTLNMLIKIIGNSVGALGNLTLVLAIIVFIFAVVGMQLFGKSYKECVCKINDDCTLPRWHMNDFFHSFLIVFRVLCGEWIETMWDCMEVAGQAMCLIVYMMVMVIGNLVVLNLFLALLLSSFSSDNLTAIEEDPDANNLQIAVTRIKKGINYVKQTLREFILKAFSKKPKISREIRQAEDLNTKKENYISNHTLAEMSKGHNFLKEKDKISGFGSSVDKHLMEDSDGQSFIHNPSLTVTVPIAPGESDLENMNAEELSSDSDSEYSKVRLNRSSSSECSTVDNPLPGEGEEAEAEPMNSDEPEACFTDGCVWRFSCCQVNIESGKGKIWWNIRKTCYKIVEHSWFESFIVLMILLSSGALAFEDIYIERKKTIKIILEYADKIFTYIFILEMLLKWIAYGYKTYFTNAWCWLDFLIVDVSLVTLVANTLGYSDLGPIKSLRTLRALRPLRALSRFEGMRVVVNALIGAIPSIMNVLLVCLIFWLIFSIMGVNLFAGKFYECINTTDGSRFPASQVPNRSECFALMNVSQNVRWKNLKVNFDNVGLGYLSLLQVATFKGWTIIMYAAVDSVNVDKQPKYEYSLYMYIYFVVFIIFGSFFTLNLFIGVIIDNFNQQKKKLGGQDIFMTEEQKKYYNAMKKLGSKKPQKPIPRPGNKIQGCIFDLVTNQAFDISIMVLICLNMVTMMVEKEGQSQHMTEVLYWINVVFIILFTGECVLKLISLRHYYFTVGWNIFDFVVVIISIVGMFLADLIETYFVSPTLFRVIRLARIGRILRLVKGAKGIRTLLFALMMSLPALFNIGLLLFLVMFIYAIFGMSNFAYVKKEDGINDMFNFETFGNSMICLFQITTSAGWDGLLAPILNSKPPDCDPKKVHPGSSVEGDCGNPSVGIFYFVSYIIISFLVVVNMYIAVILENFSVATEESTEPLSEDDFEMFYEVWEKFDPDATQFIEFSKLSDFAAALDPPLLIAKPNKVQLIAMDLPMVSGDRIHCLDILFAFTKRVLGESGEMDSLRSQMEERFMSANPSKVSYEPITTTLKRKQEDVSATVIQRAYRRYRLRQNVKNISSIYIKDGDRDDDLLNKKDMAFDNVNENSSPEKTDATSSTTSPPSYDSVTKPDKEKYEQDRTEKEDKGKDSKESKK
# Test: IonWorks Barracuda (IWB) automated patch clamp assay
# Assay type: cell-based
# Conditions: human Nav1.7 currents, HEK cells, population patch-clamp, state- and use-dependent voltage protocol; read-out: hNaV1.7 IWB-U IC50
# Procedure: Ionaworks Barracuda […] Automated Patch Clamp Assay (Same Protocol for Both Human and Mouse)
# Human Nav1.7 currents were recorded in population patch-clamp mode with the IWB automated electrophysiology system (Molecular Devices, LLC, Sunnyvale, Calif.). Spiking HEK cells (without Kir2.1 transfection) were cultured and prepared for recordings as previously described for IonWorks Quattro testing^1. The external solution consisted of the following (in mM): NaCl 140, KCl 5, CaCl2 2, MgCl2 1, HEPES 10, and glucose 11, pH 7.4, with N-methyl-D-glucamine at 320 mOsmol. […] From a holding potential of −110 mV, currents were elicited by a train of 26 depolarizations of 150 ms duration to −20 mV at a frequency of 5 Hz. Cells were then clamped to −20 mV for a period of 4 minutes in the presence of a single concentration of test compound. Following this compound incubation period, cells were clamped to −110 mV for three seconds to recover unbound channels and put through the same 26 pulse voltage protocol as above. Peak inward current during the 26th pulse to −20 mV in the presence of compound was divided by the peak inward current evoked by the 26th pulse to −20 mV in the absence of compound to determine percent inhibition. Concentration-response curves of percent inhibition as a function of concentration were generated to calculate IC50 values as described in Kornecook, T. J.; Yin, R.; Altmann, S.; et al. Pharmacologic Characterization of AMG8379, a Potent and Selective Small Molecule Sulfonamide Antagonist of the Voltage-Gated Sodium Channel NaV1. 7.
# The potency of the compounds of the present invention were evaluated on human Nav1.7 channels using the above described IonWorks Barracuda automated electrophysiology platform that evaluates the ability of compounds to block sodium conductance through Nav1.7 channels. A voltage-protocol that prosecutes both state-dependent as well as use-dependent inhibition was used as these modes of action are thought to be more relevant for the native state of Nav1.7 channels in pain sensing neurons in vivo.
row,Compound,IC50
1,"COc1cc([C@H]2C[C@H](C(F)(F)F)C2)c(F)cc1-n1c(=O)ccc2cc(S(=O)(=O)Nc3ncccn3)ccc21 (atropisomer, axis not shown; (P)) [Example 15, trans-(P)-1-(5-fluoro-2-methoxy-4-(3-(trifluoromethyl)cyclobutyl)phenyl)-2-oxo-N-(pyrimidin-2-yl)-1,2-dihydroquinoline-6-sulfonamide]",17 nM
2,"COc1cc(C2CCC2)c(Cl)cc1-n1c(=O)ccc2cc(S(=O)(=O)Nc3ncco3)ccc21 (atropisomer, axis not shown; (P)) [Example 32, (P)-1-(5-chloro-4-cyclobutyl-2-methoxyphenyl)-N-(oxazol-2-yl)-2-oxo-1,2-dihydroquinoline-6-sulfonamide]",10 nM
3,"COc1cc([C@H]2C[C@H](C(F)(F)F)C2)c(F)cc1-n1c(=O)ccc2cc(S(=O)(=O)Nc3cccnn3)ccc21 (atropisomer, axis not shown; (P)) [Example 39, trans-(P)-1-(5-fluoro-2-methoxy-4-(3-(trifluoromethyl)cyclobutyl)phenyl)-2-oxo-N-(pyridazin-3-yl)-1,2-dihydroquinoline-6-sulfonamide]",11 nM
4,"COc1cc(C2CC(F)(F)C2)c(Cl)cc1-n1c(=O)ccc2cc(S(=O)(=O)Nc3ccon3)ccc21 (atropisomer, axis not shown; (P)) [Example 48, (P)-1-(5-chloro-4-(3,3-difluorocyclobutyl)-2-methoxyphenyl)-N-(isoxazol-3-yl)-2-oxo-1,2-dihydroquinoline-6-sulfonamide]",10 nM
5,"COc1cc([C@H]2C[C@H](C(F)(F)F)C2)ccc1-n1c(=O)ccc2cc(S(=O)(=O)Nc3ccon3)ccc21 (atropisomer, axis not shown; (P)) [Example 35, trans-(P)—N-(isoxazol-3-yl)-1-(2-methoxy-4-(3-(trifluoromethyl)cyclobutyl)phenyl)-2-oxo-1,2-dihydroquinoline-6-sulfonamide]",20 nM
6,"COc1cc([C@H]2C[C@](F)(C(F)(F)F)C2)c(Cl)cc1-n1c(=O)ccc2cc(S(=O)(=O)Nc3ccon3)ccc21 (atropisomer, axis not shown; (P)) [Example 10, cis-(P)-1-(5-chloro-4-(3-fluoro-3-(trifluoromethyl)cyclobutyl)-2-methoxyphenyl)-N-(isoxazol-3-yl)-2-oxo-1,2-dihydroquinoline-6-sulfonamide]",8 nM
7,"COc1cc([C@H]2C[C@@H](C(F)(F)F)C2)c(Cl)cc1-n1c(=O)ccc2cc(S(=O)(=O)Nc3ncccn3)ccc21 (atropisomer, axis not shown; (P)) [Example 16, cis-(P)-1-(5-chloro-2-methoxy-4-(3-(trifluoromethyl)cyclobutyl)phenyl)-2-oxo-N-(pyrimidin-2-yl)-1,2-dihydroquinoline-6-sulfonamide]",18 nM
8,"COc1cc(C2CCC2)c(C)cc1-n1c(=O)ccc2cc(S(=O)(=O)Nc3cccnn3)ccc21 (atropisomer, axis not shown; (P)) [Example 30, (P)-1-(4-cyclobutyl-2-methoxy-5-methylphenyl)-2-oxo-N-(pyridazin-3-yl)-1,2-dihydroquinoline-6-sulfonamide]",137 nM
9,"COc1cc([C@H]2C[C@H](C(F)(F)F)C2)ccc1-n1c(=O)ccc2cc(S(=O)(=O)Nc3cccnn3)ccc21 (atropisomer, axis not shown; (P)) [Example 38, trans-(P)-1-(2-methoxy-4-(3-(trifluoromethyl)cyclobutyl)phenyl)-2-oxo-N-(pyridazin-3-yl)-1,2-dihydroquinoline-6-sulfonamide]",21 nM
10,"COc1cc(C2CC2)c(F)cc1-n1c(=O)ccc2cc(S(=O)(=O)Nc3ccon3)ccc21 [Compound X, 1-(4-cyclopropyl-5-fluoro-2-methoxyphenyl)-N-(isoxazol-3-yl)-2-oxo-1,2-dihydroquinoline-6-sulfonamide, reference compound]",48 nM
11,"COc1cc([C@H]2C[C@H](C(F)(F)F)C2)c(F)cc1-n1c(=O)ccc2cc(S(=O)(=O)Nc3ccon3)c(F)cc21 (atropisomer, axis not shown; (P)) [Example 40, (P)-7-fluoro-1-(5-fluoro-2-methoxy-4-((1R,3R)-3-(trifluoromethyl)cyclobutyl)phenyl)-N-(isoxazol-3-yl)-2-oxo-1,2-dihydroquinoline-6-sulfonamide]",5 nM
12,"COc1cc(C2CC(C(C)(C)C)C2)c(F)cc1-n1c(=O)ccc2cc(S(=O)(=O)Nc3ccon3)ccc21 (atropisomer, axis not shown; (P)) [Example 3, (P)-1-(4-(3-(tert-butyl)cyclobutyl)-5-fluoro-2-methoxyphenyl)-N-(isoxazol-3-yl)-2-oxo-1,2-dihydroquinoline-6-sulfonamide]",33 nM
13,"COc1cc([C@H]2C[C@H](C(F)(F)F)C2)c(F)cc1-n1c(=O)ccc2c(F)c(S(=O)(=O)Nc3ccon3)ccc21 (atropisomer, axis not shown; (P)) [Example 46, trans-(P)-5-fluoro-1-(5-fluoro-2-methoxy-4-(3-(trifluoromethyl)cyclobutyl)phenyl)-N-(isoxazol-3-yl)-2-oxo-1,2-dihydroquinoline-6-sulfonamide]",8 nM
14,"COc1cc([C@H]2C[C@](F)(C(F)(F)F)C2)c(F)cc1-n1c(=O)ccc2cc(S(=O)(=O)Nc3ccon3)ccc21 (atropisomer, axis not shown; (P)) [Example 9, cis-(P)-1-(5-fluoro-4-(3-fluoro-3-(trifluoromethyl)cyclobutyl)-2-methoxyphenyl)-N-(isoxazol-3-yl)-2-oxo-1,2-dihydroquinoline-6-sulfonamide]",2 nM
15,"COc1cc(C2CCC2)c(F)cc1-n1c(=O)ccc2cc(S(=O)(=O)Nc3ccon3)ccc21 (atropisomer, axis not shown; (P)) [Example 14, (P)-1-(4-cyclobutyl-5-fluoro-2-methoxyphenyl)-N-(isoxazol-3-yl)-2-oxo-1,2-dihydroquinoline-6-sulfonamide]",16 nM
16,"COc1cc(C2CCC2)c(Cl)cc1-n1c(=O)ccc2cc(S(=O)(=O)Nc3ccon3)ccc21 (atropisomer, axis not shown; (P)) [Example 21, (P)-1-(5-chloro-4-cyclobutyl-2-methoxyphenyl)-N-(isoxazol-3-yl)-2-oxo-1,2-dihydroquinoline-6-sulfonamide]",12 nM
17,"COc1cc(C2CCC2)c(F)cc1-n1c(=O)ccc2cc(S(=O)(=O)Nc3ncco3)ccc21 (atropisomer, axis not shown; (P)) [Example 24, (P)-1-(4-cyclobutyl-5-fluoro-2-methoxyphenyl)-N-(oxazol-2-yl)-2-oxo-1,2-dihydroquinoline-6-sulfonamide]",13 nM
18,"COc1cc([C@H]2C[C@@](F)(C(F)(F)F)C2)c(Cl)cc1-n1c(=O)ccc2cc(S(=O)(=O)Nc3ccon3)ccc21 (atropisomer, axis not shown; (P)) [Example 11, trans-(P)-1-(5-chloro-4-(3-fluoro-3-(trifluoromethyl)cyclobutyl)-2-methoxyphenyl)-N-(isoxazol-3-yl)-2-oxo-1,2-dihydroquinoline-6-sulfonamide]",2 nM
